Our source for the IC50, EC50 and AC50 values is ChEMBL document CHEMBL1201862, “PubChem BioAssay data set” (2004).

The source made the active and inactive calls.

Test [1] deals with Hexokinase (Trypanosoma brucei, UniProt Q38C41). In words: Confirmation assay for inhibitors of Trypanosoma brucei hexokinase 1-Analogue-first series. [Related pubchem assays (depositor defined):AID1430, AID1632, AID2516, AID2560, AID2579, AID2600, AID449725, AID492951]. It counts as functional.
Test [2] can be described thus: NIH-3T3 fibroblast cytotoxicity, dose response, cytotoxicity control, cell-based, fluorescence, Alamar Blue, secondary assay (AID 2327).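 Further: NIH-3T3 mouse fibroblasts cultured with fluconazole at 8 µg/mL.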 The class given is functional. Background: Alamar Blue is a resazurin reagent that responds to reducing activity.
Test [3] is described as follows: C. albicans growth with fluconazole, confirmation, fluorescence, retest (AID 2467). It counts as functional, cell-based.
Test [4] addresses Intestinal-type alkaline phosphatase (Mus musculus, UniProt P24822). In words: PubChem AID 488874. It counts as functional.
The target of test [5] is T1, Intestinal-type alkaline phosphatase (Homo sapiens, UniProt P09923). In words: human intestinal alkaline phosphatase activators, dose response, biochemical, luminescence, uHTS hits (AID 463120). The class given is functional.
T1 sequence (P09923 whole entry): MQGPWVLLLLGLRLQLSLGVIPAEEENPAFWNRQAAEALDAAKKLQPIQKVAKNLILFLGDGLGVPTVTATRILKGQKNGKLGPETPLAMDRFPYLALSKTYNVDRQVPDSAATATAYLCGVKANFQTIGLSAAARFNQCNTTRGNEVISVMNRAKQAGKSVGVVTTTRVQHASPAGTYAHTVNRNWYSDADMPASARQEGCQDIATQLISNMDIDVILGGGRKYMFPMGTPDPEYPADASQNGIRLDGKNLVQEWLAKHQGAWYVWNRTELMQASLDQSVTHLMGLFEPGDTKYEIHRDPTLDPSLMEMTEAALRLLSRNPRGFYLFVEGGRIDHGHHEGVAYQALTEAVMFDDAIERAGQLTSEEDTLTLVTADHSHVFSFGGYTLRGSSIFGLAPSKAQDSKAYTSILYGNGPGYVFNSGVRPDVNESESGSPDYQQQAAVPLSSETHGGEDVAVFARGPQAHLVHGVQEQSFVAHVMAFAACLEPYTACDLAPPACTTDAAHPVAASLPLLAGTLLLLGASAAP
Test [6] addresses T1, Intestinal-type alkaline phosphatase. In words: human IAP activators, dose response, biochemical, luminescent, uHTS hits, set 2 (AID 488817).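 Further: potency of activators that raise enzyme activity.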 It counts as functional.
In test [7] the target is T2, Alkaline phosphatase, tissue-nonspecific isozyme (Homo sapiens, UniProt P05186).
T2 sequence (P05186 whole entry): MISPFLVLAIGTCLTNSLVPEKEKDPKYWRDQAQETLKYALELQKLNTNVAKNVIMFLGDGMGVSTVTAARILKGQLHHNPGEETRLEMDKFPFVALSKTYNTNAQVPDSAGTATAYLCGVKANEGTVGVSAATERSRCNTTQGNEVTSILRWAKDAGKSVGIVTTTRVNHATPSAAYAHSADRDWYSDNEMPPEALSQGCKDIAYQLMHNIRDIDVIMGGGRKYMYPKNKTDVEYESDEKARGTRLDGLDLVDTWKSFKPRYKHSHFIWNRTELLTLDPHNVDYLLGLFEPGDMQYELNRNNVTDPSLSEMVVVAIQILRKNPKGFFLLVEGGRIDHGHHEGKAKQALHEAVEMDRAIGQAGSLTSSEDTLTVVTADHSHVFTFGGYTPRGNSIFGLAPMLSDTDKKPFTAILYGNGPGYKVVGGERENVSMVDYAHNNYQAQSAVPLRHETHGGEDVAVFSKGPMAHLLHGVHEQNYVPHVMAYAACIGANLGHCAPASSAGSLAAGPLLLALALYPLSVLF
In words: TNAP enzyme activators, dose response, selectivity assay for human IAP activator project, biochemical, TNAP isozyme, human IAP uHTS hits (AID 488886).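 Further: potency of compounds raising TNAP activity as a selectivity check on IAP activators.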 The class given is functional.

Test [8] in a line: human group III sPLA2 inhibitors, dose response, biochemical, QFRET, IC50 (AID 743457).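 Further: green fluorescence rise as the enzyme cleaves BODIPY PC-A2 in liposomes; potency for inhibition of the enzyme.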
Test [9] is described as follows: Luminescence Cell-Based Dose Confirmation HTS to Identify Activators of 5'UTR Stem-Loop Driven Alpha-Synuclein mRNA Translation in H4 Neuroglioblastoma Cells. [Related pubchem assays: 1829 (Project Summary), 1814 (Primary HTS)]. The class given is functional.
Test [10] in a line: Luminescence Cell-Based Dose Response HTS to Identify Activators of Luciferase Translation or Activity in H4 […] Cells. [Related pubchem assays: 1829 (Project Summary), 1814 (Primary HTS)]. It counts as functional.
Test [11] deals with H4. In words: Luminescence Cell-Based Dose Response HTS to Identify Activators of 5'UTR Stem-Loop Driven Prion Protein mRNA Translation in H4 Neuroglioblastoma Cells. [Related pubchem assays: 1829 (Project Summary), 1814 (Primary HTS)]. The following applies: Homo sapiens. It counts as functional.
Test [12] in a line: growth suppression of PTEN-null colon cells, dose response, cell-based, HCT116 PTEN knockout (AID 1047).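 Further: HCT116 colon tumor cells with PTEN knocked out; cells exposed to compound for 60 hours before readout; potency for loss of cell viability measured by luminescence.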 It counts as functional.
The target in test [13] is T3, Sphingosine 1-phosphate receptor 4 (Homo sapiens, UniProt O95977).
T3 sequence (O95977 whole entry): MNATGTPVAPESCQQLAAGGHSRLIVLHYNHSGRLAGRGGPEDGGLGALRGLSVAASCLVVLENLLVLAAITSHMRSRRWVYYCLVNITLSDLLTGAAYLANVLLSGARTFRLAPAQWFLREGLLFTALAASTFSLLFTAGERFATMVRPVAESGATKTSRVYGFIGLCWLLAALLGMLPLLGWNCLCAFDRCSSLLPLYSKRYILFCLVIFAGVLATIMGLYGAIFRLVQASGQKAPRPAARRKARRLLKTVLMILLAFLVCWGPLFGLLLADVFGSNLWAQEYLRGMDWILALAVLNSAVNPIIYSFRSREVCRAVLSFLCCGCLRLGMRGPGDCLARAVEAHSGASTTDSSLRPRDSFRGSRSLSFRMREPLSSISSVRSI
In words: Late stage fluorescence dose response cell-based screening assay for antagonists of the Sphingosine 1-Phosphate Receptor 4 (S1P4). [Related pubchem assays: 1524 (Confirmation screen (S1P4 antagonists).), 1510 (Primary screen (S1P4 antagonists).), 1853 (Summary AID (S1P4 antagonists).), 1692 (Dose response screen (S1P4 antagonists).)]. The class given is functional.

Test [14] can be described thus: growth suppression of beta-catenin-knockout colon cells, dose response, cell-based, HCT116, human colon tumor (AID 1045).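 Further: HCT116 colon tumor cells with beta catenin knocked out; cells exposed to compound for 60 hours.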 It counts as functional.
In test [15] the target is T3, Sphingosine 1-phosphate receptor 4. In words: Fluorescence dose response cell-based high throughput screening assay for antagonists of the Sphingosine 1-Phosphate Receptor 4 (S1P4). [Related pubchem assays: 1524 (Confirmation in triplicates.), 1510 (Primary screen.)]. The class given is functional.
Test [16] concerns the target Sphingosine 1-phosphate receptor 1 (Homo sapiens, UniProt P21453). It counts as functional.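 Further: Tango beta-arrestin reporter U2OS cells stimulated with S1P near its EC80; inhibitor potency meaning antagonism of receptor activation by the natural agonist.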
For test [17], the target named is G-protein coupled receptor 55 (Homo sapiens, UniProt Q9Y2T6). In words: GPR55 agonists via beta-arrestin recruitment, primary screen, imaging, U2OS cells, beta-arrestin-GFP redistribution (AID 1961). The class given is functional. (Recruitment of arrestin is a read-out of receptor activation apart from second messengers.)
Sequence of G-protein coupled receptor 55 (Q9Y2T6 whole entry): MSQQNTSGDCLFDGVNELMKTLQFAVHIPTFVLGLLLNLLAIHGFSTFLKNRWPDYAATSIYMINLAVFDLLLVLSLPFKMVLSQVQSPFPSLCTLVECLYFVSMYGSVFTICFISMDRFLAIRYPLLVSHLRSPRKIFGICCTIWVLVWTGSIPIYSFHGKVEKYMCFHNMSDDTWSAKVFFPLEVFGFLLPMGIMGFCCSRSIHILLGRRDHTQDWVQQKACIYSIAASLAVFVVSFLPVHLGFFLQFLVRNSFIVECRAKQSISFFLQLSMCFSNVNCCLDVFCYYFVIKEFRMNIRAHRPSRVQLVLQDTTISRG
For test [18], the system named is INS1. In words: beta cell apoptosis inhibitors, cytokine rescue, dose response, luminescence, retest (AID 449756).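 Further: cell death triggered by IL-1 beta plus TNF-alpha plus IFN-gamma mixture; protective hits raise ATP signal compared with cytokine alone wells.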 The class given is functional, cell-based. The following applies: Rattus norvegicus.
Test [19] can be described thus: Fluorescence-based cell-based high throughput dose response assay for inhibitors of the interaction of nucleotide-binding oligomerization domain containing 2 (NOD2) and the receptor-interacting serine-threonine kinase 2 (RIPK2). The class given is functional. The following applies: Homo sapiens.
The target in test [20] is Photoreceptor-specific nuclear receptor (Homo sapiens, UniProt Q9Y5X4). It counts as functional, cell-based.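 Further: CHO-S cells with Gal4-NCOR and VP16-NR2E3 two-hybrid luciferase reporter.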
Sequence of Photoreceptor-specific nuclear receptor (Q9Y5X4 whole entry, the tested form may be a part): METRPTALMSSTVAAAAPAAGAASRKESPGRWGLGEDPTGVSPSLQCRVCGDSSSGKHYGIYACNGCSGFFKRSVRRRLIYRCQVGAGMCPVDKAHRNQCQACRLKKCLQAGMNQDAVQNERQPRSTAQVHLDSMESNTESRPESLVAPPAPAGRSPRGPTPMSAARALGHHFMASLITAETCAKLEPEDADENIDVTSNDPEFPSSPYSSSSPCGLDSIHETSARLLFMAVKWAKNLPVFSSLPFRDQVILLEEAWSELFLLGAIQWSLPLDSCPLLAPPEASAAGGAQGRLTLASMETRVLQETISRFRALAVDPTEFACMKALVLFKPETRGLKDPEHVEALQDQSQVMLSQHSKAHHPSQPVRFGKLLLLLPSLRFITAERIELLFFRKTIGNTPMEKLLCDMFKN
Test [21] addresses Beta Lactamase (Pseudomonas aeruginosa, UniProt Q932Y6). In words: beta-lactamase reporter inhibitor potency, dose response, artefact control for NOD2-RIPK2 interaction inhibitor project, BLA reporter cells, FRET fluorescence (AID 651552). The class given is functional, cell-based.
Test [22] concerns the target Paired box protein Pax-8 (Homo sapiens, UniProt Q06710). In words: inhibitors of PAX8-driven TPO luciferase reporter, dose response, RMG-I cells, cherry-pick (AID 687027).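 Further: luciferase reporter driven by Pax8 target thyroperoxidase promoter measured by SteadyGlo luminescence.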 The class given is functional, cell-based. (In general: In a reporter assay the amount or activity of a reporter protein is the signal.)
The nature of test [23]: inhibitors of PGC1a acetylation in cells, dose response, cell-based, cherry-picked samples (AID 720514).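 Further: potency may reflect raised or lowered acetylation signal.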 It counts as functional.
Test [24] can be described thus: A549 cell cytotoxicity, dose response, cytotoxicity control, plate reader, cherry-pick, antagonist series (AID 743412). The class given is functional, cell-based.
The nature of test [25]: HepG2 cell cytotoxicity, dose response, cytotoxicity control, plate reader, cherry-pick, antagonist series (AID 743416). The class given is functional, cell-based.
The nature of test [26]: LGR2 antagonists, dose response, cell-based, HEK293, CRE-luciferase reporter, cherry pick, set 2 (AID 743343).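 Further: transfected cells were stimulated with diluted bursicon conditioned medium after compound addition.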 The class given is functional.
Test [27] is described as follows: MC4R antagonists, dose response, counter-screen for LGR2 antagonist project, cell-based, plate reader, cherry pick (AID 743444).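 Further: transfected HEK 293 cells stimulated with alpha-MSH peptide; potency of inhibitors of the alpha-MSH evoked signal.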 It counts as functional.
A short description of test [28]: HEK293 cell cytotoxicity, dose response, cytotoxicity control, plate reader, cherry-picked samples (AID 743446). It counts as functional, cell-based.
Test [29] deals with T4, Coagulation factor XII (Homo sapiens, UniProt P00748).
T4 sequence (P00748 whole entry): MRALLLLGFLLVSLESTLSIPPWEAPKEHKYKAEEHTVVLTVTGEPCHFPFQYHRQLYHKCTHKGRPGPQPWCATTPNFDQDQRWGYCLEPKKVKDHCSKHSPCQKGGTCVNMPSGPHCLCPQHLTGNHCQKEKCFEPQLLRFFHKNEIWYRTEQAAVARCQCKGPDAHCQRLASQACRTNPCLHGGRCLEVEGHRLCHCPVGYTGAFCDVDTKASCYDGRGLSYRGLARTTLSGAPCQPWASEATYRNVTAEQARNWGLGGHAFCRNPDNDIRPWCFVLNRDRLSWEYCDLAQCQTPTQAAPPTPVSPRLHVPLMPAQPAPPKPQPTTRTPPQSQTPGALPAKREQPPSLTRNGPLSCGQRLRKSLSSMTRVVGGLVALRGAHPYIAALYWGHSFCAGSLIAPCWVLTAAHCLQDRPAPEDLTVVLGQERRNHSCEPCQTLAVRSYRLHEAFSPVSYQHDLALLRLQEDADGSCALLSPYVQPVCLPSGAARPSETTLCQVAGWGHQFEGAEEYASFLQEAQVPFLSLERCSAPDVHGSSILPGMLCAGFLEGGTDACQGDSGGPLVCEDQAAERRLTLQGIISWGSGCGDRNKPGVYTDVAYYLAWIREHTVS
In words: FXIIa inhibitor potency, concentration-response, biochemical (AID 716). It counts as functional.

Test [30] concerns the target DNA dC->dU-editing enzyme APOBEC-3A (Homo sapiens, UniProt P31941). In words: APOBEC3A DNA deaminase inhibitors, dose response, biochemical (AID 504722). The class given is functional.
In test [31] the target is DNA dC->dU-editing enzyme APOBEC-3G (Homo sapiens, UniProt Q9HC16). In words: Dose Response confirmation of small molecule APOBEC3G DNA Deaminase Inhibitors via a fluorescence-based single-stranded DNA deaminase assay. [Related pubchem assays (depositor defined):AID493012, AID493028]. The class given is functional.
Sequence of DNA dC->dU-editing enzyme APOBEC-3G (Q9HC16 whole entry): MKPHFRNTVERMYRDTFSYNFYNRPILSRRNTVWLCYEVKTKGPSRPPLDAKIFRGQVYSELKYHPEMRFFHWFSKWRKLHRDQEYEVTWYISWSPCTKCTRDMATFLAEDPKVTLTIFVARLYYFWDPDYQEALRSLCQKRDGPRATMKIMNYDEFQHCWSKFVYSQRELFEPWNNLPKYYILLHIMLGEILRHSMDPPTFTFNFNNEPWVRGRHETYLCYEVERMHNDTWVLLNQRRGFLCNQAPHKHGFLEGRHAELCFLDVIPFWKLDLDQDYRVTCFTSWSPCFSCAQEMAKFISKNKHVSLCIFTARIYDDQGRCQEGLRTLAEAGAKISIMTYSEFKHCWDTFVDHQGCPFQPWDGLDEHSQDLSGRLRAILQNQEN

Sequence of Intestinal-type alkaline phosphatase (Mus musculus, UniProt P24822) (P24822 whole entry): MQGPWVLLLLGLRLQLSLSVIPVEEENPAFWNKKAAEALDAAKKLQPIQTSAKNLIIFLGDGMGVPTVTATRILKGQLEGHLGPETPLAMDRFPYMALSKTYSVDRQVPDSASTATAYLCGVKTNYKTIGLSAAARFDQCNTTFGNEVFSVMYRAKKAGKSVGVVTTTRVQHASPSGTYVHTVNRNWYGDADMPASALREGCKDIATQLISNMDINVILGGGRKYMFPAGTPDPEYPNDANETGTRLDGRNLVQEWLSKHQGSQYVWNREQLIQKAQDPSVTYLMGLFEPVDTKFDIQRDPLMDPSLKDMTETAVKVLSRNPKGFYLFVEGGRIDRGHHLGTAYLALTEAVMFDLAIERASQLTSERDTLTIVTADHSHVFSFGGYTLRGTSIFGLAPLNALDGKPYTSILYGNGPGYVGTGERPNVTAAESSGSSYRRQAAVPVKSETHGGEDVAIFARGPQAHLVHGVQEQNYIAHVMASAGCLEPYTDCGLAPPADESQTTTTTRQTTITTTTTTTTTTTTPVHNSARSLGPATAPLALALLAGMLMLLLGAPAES
Sequence of Sphingosine 1-phosphate receptor 1 (P21453 whole entry): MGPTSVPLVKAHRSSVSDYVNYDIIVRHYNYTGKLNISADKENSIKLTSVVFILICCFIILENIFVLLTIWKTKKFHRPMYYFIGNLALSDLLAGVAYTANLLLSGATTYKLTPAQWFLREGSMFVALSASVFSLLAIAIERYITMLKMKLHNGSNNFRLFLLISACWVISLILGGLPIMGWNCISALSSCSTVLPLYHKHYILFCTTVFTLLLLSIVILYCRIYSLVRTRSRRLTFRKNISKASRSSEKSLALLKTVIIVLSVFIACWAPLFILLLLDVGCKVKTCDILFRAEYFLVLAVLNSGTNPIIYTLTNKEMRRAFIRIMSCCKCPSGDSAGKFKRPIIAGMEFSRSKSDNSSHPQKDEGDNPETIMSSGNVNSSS
Sequence of Hexokinase (Q38C41 whole entry): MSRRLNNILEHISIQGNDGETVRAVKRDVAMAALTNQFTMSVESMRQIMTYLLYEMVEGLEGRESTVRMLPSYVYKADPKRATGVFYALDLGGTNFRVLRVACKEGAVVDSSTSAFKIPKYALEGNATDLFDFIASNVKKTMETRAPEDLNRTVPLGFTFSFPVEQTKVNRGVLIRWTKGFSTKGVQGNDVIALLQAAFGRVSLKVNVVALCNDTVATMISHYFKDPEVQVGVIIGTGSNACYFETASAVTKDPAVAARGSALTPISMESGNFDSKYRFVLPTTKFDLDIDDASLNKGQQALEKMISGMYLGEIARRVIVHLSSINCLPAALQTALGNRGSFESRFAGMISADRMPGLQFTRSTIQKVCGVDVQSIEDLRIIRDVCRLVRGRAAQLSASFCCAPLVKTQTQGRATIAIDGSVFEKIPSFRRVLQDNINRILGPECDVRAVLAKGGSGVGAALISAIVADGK
Sequence of Paired box protein Pax-8 (Q06710 whole entry): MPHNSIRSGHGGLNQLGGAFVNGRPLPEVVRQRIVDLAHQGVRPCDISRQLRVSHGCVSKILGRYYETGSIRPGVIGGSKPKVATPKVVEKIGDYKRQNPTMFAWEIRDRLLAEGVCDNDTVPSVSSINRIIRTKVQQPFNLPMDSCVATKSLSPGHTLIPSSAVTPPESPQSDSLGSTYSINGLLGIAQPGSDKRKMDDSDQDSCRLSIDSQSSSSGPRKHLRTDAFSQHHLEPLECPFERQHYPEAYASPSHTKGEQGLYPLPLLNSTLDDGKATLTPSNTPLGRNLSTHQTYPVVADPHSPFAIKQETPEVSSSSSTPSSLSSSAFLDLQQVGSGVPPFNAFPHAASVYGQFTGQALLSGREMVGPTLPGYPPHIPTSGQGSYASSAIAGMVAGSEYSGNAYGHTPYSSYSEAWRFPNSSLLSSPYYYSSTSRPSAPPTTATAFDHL
Sequence of Beta Lactamase (Q932Y6 whole entry): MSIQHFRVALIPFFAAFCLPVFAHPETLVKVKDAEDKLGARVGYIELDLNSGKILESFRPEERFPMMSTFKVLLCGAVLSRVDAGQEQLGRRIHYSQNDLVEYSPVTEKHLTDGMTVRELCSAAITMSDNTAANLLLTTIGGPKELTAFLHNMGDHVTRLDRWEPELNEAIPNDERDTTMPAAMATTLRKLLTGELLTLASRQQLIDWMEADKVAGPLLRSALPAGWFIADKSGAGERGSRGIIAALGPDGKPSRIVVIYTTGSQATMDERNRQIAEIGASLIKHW
Sequence of DNA dC->dU-editing enzyme APOBEC-3A (P31941 whole entry): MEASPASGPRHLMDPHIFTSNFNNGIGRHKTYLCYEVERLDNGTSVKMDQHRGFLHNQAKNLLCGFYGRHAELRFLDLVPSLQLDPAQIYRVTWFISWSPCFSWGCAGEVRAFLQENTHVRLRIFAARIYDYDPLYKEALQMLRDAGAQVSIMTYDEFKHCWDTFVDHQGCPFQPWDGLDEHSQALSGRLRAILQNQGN

Broadly, the IC50 is the point on the concentration scale where inhibition reaches its midpoint. On to `CCc1ccc(C(=O)Nc2cc(Br)ccc2C(=O)O)cc1`, for which, in test [1], the 50% inhibitory concentration (IC50) was 5.45 µM (active).

In general, EC50 refers to the concentration needed to bring the measured effect to its halfway point. Regarding `O=C(NNC(=S)NC1CCCCC1)c1ccccc1Br`, the EC50 in test [2] was 21.7 µM (inconclusive); in test [3] it was 2.94 µM (active); in [5], 12.1 µM (active); in test [6] it was 14.9 µM (active); in [7], 16.1 µM (active). Moreover, the values for the IC50 in [4] and in [8] were 50.3 µM (active) and > 122 µM (inactive), respectively.

As usually defined, the AC50 is the concentration giving half of the maximal activity seen. With `O=C(NCc1cccnc1)/C(=C\c1ccc(-c2ccc(Cl)c(Cl)c2)o1)S(=O)(=O)c1ccccc1`, the EC50 in [9] was > 120 µM (not active); in test [10], > 120 µM (not active); in [11], > 120 µM (not active); in test [12] it was 2.92 µM (active); in test [14] it was 2.39 µM (active); in test [17], 1.61 µM (active). Besides, the 50% inhibitory concentration (IC50) in [13] is > 50 µM (not active); in [15], 0.965 µM (active); in [16], 8.81 µM (active); in test [19], 4.34 µM (active); in [20], 4.08 µM (active); in [21] it was 26.7 µM (inactive). Also, the AC50 was 3.63 µM (active) in test [18]; 4.66 µM (active) in test [22]; 3.52 µM (active) in [23]; 6.6 µM (active) in test [24]; 7.96 µM (active) in test [25]; 8.45 µM (active) in test [26]. For the same compound, the AC50 was 7.86 µM (active) in test [27] and 8.51 µM (active) in [28].

In the case of `CC(C)(C)NC(=O)CN(C(=O)C1CSC(=O)C1)c1ccc2c(c1)OCCO2` (stereo unspecified), the IC50 in test [29] was > 50 µM (inactive).

As to `Cn1c(S)nnc1-c1ccc(C(C)(C)C)cc1`, the IC50 in test [30] is > 100 µM (inactive); in test [31], 4.79 µM (active).
